Measured values from US20150299345A1, “ANTIBACTERIAL MONOMERS, ANTIBACTERIAL RESINS AND DENTAL COMPOSITES COMPRISING THE ANTIBACTERIAL RESINS” (UNIVERSITY OF MARYLAND, BALTIMORE, priority 2012, published 2015).
Like-named read-outs stand apart in the source and are kept apart here.

Columns and labels:
[1] = tested on: S. mutans (ATCC 700610, UA159); test: MIC and MBC by serial microdilution assays; format: cell-based, Streptococcus mutans; conditions: for antibacterial potency (MIC and MBC) compared with another agent: comparison in words; for MBC / MIC: 48 h, triplicate
Protocol: MIC and MBC were measured using S. mutans (ATCC 700610, UA159, American Type Culture, Manassas, Va.). S. mutans is a cariogenic, aerotolerant anaerobic bacterium and the primary causative agent of dental caries (Loesche 1986). MIC and MBC were determined via serial microdilution assays (Imazato S et al. 2006; Huang L et al. 2011). Unpolymerized DMAHM or DMADM monomer was dissolved in brain heart infusion (BHI) broth (BD, Franklin Lakes, N.J.) to give a final concentration of 200 mg/mL. From these starting solutions, serial two fold dilutions were made into 1 mL volumes of BHI broth. 15 μL of stock S. mutans was added to 15 mL of BHI broth with 0.2% sucrose and incubated at 37° C. with 5% CO2. Overnight cultures of S. mutans were adjusted to 2×10^6 CFU/mL with BHI broth, and 50 μL of inocula was added to each well of a 96-well plate containing 50 μL of a series of antibacterial monomer dilution broths. BHI broth with 1×10^6 CFU/mL bacteria suspension without antibacterial agent served as negative control. Chlorhexidine diacetate (CHX) (Sigma, St. Louis, Mo.) served as positive control. The previously-synthesized QADM (Antonucci J M et al. 2012; Cheng L et al. 2012a) served as an antibacterial monomer control. After incubation at 37° C. in 5% CO2 for 48 h, the wells were read for turbidity, referenced by the negative and positive control wells. MIC was determined as the endpoint (the well with the lowest antibacterial agent concentration) where no turbidity could be detected with respect to the controls (Huang L et al. 2011). To determine MBC, an aliquot of 50 μL from each well without turbidity was inoculated on BHI agar plates and incubated at 37° C. in 5% CO2 for 48 h. MBC was determined as the lowest concentration of antibacterial agent that produced no colonies on the plate. The tests were performed in triplicate (Huang L et al. 2011).

[2] = tested on: Human gingival fibroblasts (HGF); test: Cytotoxicity of monomers via MTT assay; format: cell-based; conditions: for cytotoxicity / cell viability compared with BisGMA: human gingival fibroblasts, FIG. 1
Protocol: Human gingival fibroblasts (HGF, ScienCell) were cultured in a fibroblast medium (FM). […] Then, HGF were seeded in 96-well plates at 5,000 cells per well. […] After 4 h, the unreacted dye was removed and 150 μL, of dimethyl sulfoxide was added. Absorbance was measured via the microplate reader at 492 nm. […] Cells were also live/dead stained (Molecular Probes) and examined with fluorescence microscopy (TE2000-S, Nikon) as shown in FIG. 1B.

[3] = tested on: dental plaque microcosm biofilms; test: Live/dead assay of biofilms (CLSM); format: cell-based, human saliva inoculum; conditions: 48-h biofilms on composite disks, FIG. 5
Protocol: The dental plaque microcosm biofilm model used human saliva as inoculum. Saliva was collected from a healthy adult donor following a previous study (Cheng L et al. 2012b). The donor had natural dentition without active caries or periopathology, and without the use of antibiotics within the last 3 months. […] Stimulated saliva was collected during parafilm chewing and kept on ice. The saliva was diluted in sterile glycerol to a concentration of 70% saliva and 30% glycerol (Cheng L et al. 2012b), and stored at −80° C. The saliva-glycerol stock was added, with 1:50 final dilution, into the growth medium as inoculum. The growth medium contained mucin (type II, porcine, gastric) at a concentration of 2.5 g/L; bacteriological peptone, 2.0 g/L; tryptone, 2.0 g/L; yeast extract, 1.0 g/L; NaCl, 0.35 g/L, KCl, 0.2 g/L; CaCl2, 0.2 g/L; cysteine hydrochloride, 0.1 g/L; haemin, 0.001 g/L; vitamin K1, 0.0002 g/L, at pH 7 (McBain A J 2009). Composite disks were sterilized in ethylene oxide (Anprolene AN 74i, Andersen, Haw River, N.C.). 1.5 mL of inoculum was added to each well of 24-well plates with a composite disk, and incubated in 5% CO2 at 37° C. for 8 h. […] Live bacteria were stained with Syto 9 to produce a green fluorescence, and bacteria with compromised membranes were stained with propidium iodide to produce a red fluorescence. […]

[4] = unpolymerized monomer in BHI broth

Row | SMILES | MIC [1, 4] [µg/mL] | MIC ([1]; Streptococcus mutans, ATCC700610, unpolymerized monomer in BHI broth, read-out: MIC) [µg/mL] | antibacterial potency (MIC and MBC) compared with another agent [1] | MBC [1, 4] [µg/mL] | fibroblast viability ([2]; at each monomer concentration (0.5-100 μg/mL), 2 d, n=6, FIG. 1) | cytotoxicity / cell viability compared with BisGMA [2] | antibacterial activity by live/dead staining of biofilms [3] | MBC ([1]; Streptococcus mutans, ATCC700610, unpolymerized monomer in BHI broth, read-out: MBC) [µg/mL]
1 | C=C(C)C(=O)OCC[N+](C)(C)CCCCCCCCCCCC.[Br-] [DMADDM, dimethylamino dodecyl methacrylate] | 6.10 | – | more than two orders of magnitude lower than those of MDAHM | 12.21 | highest fibroblast viability | less cytotoxic | responsible for the antibacterial activity | –
2 | C=C(C)C(=O)OCCCCCCCCCCCC[n+]1ccccc1.[Br-] [MDPB, reference compound] | – | – | – | – | – | less cytotoxic | – | –
3 | CC(=O)O.CC(=O)O.NC(=N\CCCCCC/N=C(N)/N=C(\N)Nc1ccc(Cl)cc1)/N=C(\N)Nc1ccc(Cl)cc1 [CHX, Chlorhexidine diacetate, reference compound] | 1.95 | – | – | 3.91 | – | – | – | –

Second part, led by results:

Row | MIC [1, 4] [µg/mL] | MIC ([1]; Streptococcus mutans, ATCC700610, unpolymerized monomer in BHI broth, read-out: MIC) [µg/mL] | SMILES | antibacterial potency (MIC and MBC) compared with another agent [1] | MBC [1, 4] [µg/mL] | fibroblast viability ([2]; at each monomer concentration (0.5-100 μg/mL), 2 d, n=6, FIG. 1) | cytotoxicity / cell viability compared with BisGMA [2] | antibacterial activity by live/dead staining of biofilms [3] | MBC ([1]; Streptococcus mutans, ATCC700610, unpolymerized monomer in BHI broth, read-out: MBC) [µg/mL]
4 | – | 12500 | C=C(C)C(=O)OCC[N+](C)(C)CCOC(=O)C(=C)C.[Br-] [QADM, bis(2-methacryloyloxy-ethyl) dimethyl-ammonium bromide, reference compound] | – | – | – | – | – | 25000
5 | 0.305 | – | C=C(C)C(=O)OCC[N+](C)(C)CCCCCCCCCCCCCCCC.[Br-] [DMAHDM, dimethylamino hexadecyl methacrylate] | an order of magnitude more potent than those for chain length 12 | 0.61 | – | – | – | –
6 | 1560 | – | C=C(C)C(=O)OCC[N+](C)(C)CCCCCC.[Br-] [DMAHM] | more potent than the previously-synthesized QADM | 3130 | – | – | – | –
